One assay has as its system Hepatitis C. The note with it: by week four; VX-950 alone; cited from earlier work.
The test system of another assay is HCV genotype 1. The assay can be described thus: Example 2: Phase II study of treatment-naïve patients, plasma HCV RNA by Roche COBAS TaqMan HCV/HPS assay. In kind it is in vivo, human. The conditions noted are these: addition to PegIntron/REBETOL combination therapy, 28 and 48 week regimens. As for the experimental part: The effectiveness of a lead-in period with interferon and ribavirin combination therapy prior to the addition of an HCV protease inhibitor was further evaluated in a study of 595 treatment-naïve patients infected with HCV genotype 1. In this study, boceprevir (compound of Formula 1a) is being evaluated, compared to a control of PegIntron® (peginterferon alfa-2b) at 1.5 mcg/kg QW plus REBETOL® (ribavirin, USP) (800-1400 mg/day) for a treatment period of 48 weeks, in three treatment regimens: • P/R Lead-In +B/P/R: • PegIntron (1.5 mcg/kg QW) in combination with REBETOL (800-1400 mg/day) during a first treatment period of 4 weeks followed by adding boceprevir (800 mg TID) to the combination during a second treatment period of 24 or 44 weeks; thus, the total treatment time with PegIntron and REBETOL was 28 or 48 weeks; • B/P/R: • boceprevir (800 mg TID) in combination with PegIntron (1.5 mcg/kg QW) plus REBETOL (800-1400 mg/day) for a single treatment period of 28 or 48 weeks; and • B/P/Low-dose R: • boceprevir (800 mg TID) in combination with PegIntron (1.5 mcg/kg QW) plus low-dose REBETOL (400-1000 mg/day) for a single treatment period of 48 weeks. […]
Plasma HCV RNA levels were measured using the Roche COBAS TaqMan® HCV/HPS assay (Roche Molecular Systems, Somerville, N.J.).

These results are taken from US20100226885A1, “METHOD OF TREATING HEPATITIS C PATIENTS” (priority 2007, published 2010).

Molecules are shown by their SMILES.

As for `CCC[C@H](NC(=O)[C@@H]1[C@H]2CCC[C@H]2CN1C(=O)[C@@H](NC(=O)[C@@H](NC(=O)c1cnccn1)C1CCCCC1)C(C)(C)C)C(=O)C(=O)NC1CC1` [VX-950], the “treated patients showing evidence of negative HCV status” value in the assay on Hepatitis C is recorded as 79%.
For `CC(C)(C)NC(=O)N[C@H](C(=O)N1CC2C([C@H]1C(=O)NC(CC1CCC1)C(=O)C(N)=O)C2(C)C)C(C)(C)C` (some centres unmarked) [boceprevir], in the assay with HCV genotype 1, the “SVR compared to the PegIntron/REBETOL control” value is given as “markedly increased SVR”.
